Source: publication PMC9387934, “Randomized single oral dose phase 1 study of safety, tolerability, and pharmacokinetics of Iminosugar UV-4 Hydrochloride (UV-4B) in healthy subjects” (PLoS Neglected Tropical Diseases, 2022)
Where a name gives a salt, the structure may show the parent alone. Read-outs that look alike come from different tables or passages of the source.

Assays:
CYP2C8 = system: CYP2C8; design: method as in Investigator’s Brochure (IB); settings: in vitro; ref Investigator’s Brochure (IB); cited from earlier work
CYP2C9 = system: CYP2C9; design: method as in Investigator’s Brochure (IB); settings: in vitro; ref Investigator’s Brochure (IB); cited from earlier work
[1] = design: method as in Investigator’s Brochure (IB); settings: rat, average; ref Investigator’s Brochure (IB); cited from earlier work
CYP2E1 = system: CYP2E1; design: method as in Investigator’s Brochure (IB); settings: in vitro; ref Investigator’s Brochure (IB); cited from earlier work
ER α-glucosidase enzymes = system: ER α-glucosidase enzymes; design: method as in PMID 32227946; settings: single dose of UV-4; cited from earlier work
[2] = compared with UV-4; cited from earlier work
[3] = Reproductive toxicity upper limit study in rabbits, 13 days; assay type: in vivo, rabbit; settings: 50 mg/kg/day
Procedure: 7. Reproductive toxicity:
UV-4B has been evaluated for developmental and reproductive toxicity in fertility and early embryonic development in rats, embryo-fetal development in rats and rabbits, and pre- and postnatal development in rats. In male and female rats given UV-4B at 8, 20, and 50 mg/kg/day before mating and continuing through Gestation Day 13, a […]
observed at 50 mg/kg/day. […]
count but following a 21-week treatment-free period there was complete recovery in pregnancy and fertility indices However, decrease in testicular weight, sperm motility […]
identify the upper limit of reproductive toxicity, a dose of 50 mg/kg/day for 12 […]
In a study designed to identify the upper limit of reproductive toxicity, a dose of 50 […]
rabbit offspring. The rat and rabbit doses are equivalent to 486 and 966 mg/day, […]
In summary, findings that have been identified in the UV-4B toxicology studies so far include effects on the GI tract (including ulcers/erosions), lymphocytes and lymphoid tissue, reduction in PLT count, and increases in transaminases (AST>ALT). Findings were generally consistent across mouse, dog, and rat, apart from the isolated finding of swollen paws/legs and perioral appearance and red skin which was seen only in the rat. […]

[4] = mouse, cited from earlier work
[5] = cited from earlier work

COCCCCCCCCCN1C[C@H](O)[C@@H](O)[C@H](O)[C@H]1CO [UV-4, N-(9’-methoxynonyl)-1-deoxynojirimycin]
Direct inhibition of CYP2C8 (CYP2C8): No clinically relevant direct inhibition | Direct inhibition of CYP2C9 (CYP2C9): No clinically relevant direct inhibition | Bioavailability [1]: ≥ 99% | Direct inhibition of CYP2E1 (CYP2E1): No clinically relevant direct inhibition | Duration of pharmacodynamic effect on the target ER α-glucosidase enzymes (ER α-glucosidase enzymes): at least 72 hours

COCCCCCCCCCN1C[C@H](O)[C@@H](O)[C@H](O)[C@H]1CO [UV-4B, N-(9’-methoxynonyl)-1-deoxynojirimycin hydrochloride]
Solubility of the hydrochloride salt [2]: higher solubility | Human equivalent of the rabbit dose [3]: 966 mg/day | Dose with lymphoid depletion in thymus ([4]; F): ≥ 25 mg/kg/dose, TID | Dose with lymphoid depletion in thymus ([4]; M): 100 mg/kg/dose, TID | Dose with neutrophilic infiltration and erosion/ulcer in rectum ([4]; females (printed F100))): 100 mg/kg/dose, TID | Neurologic Effects ([4]; functional observational battery): no effect in FOB | Dose with decrease in thymus weight ([4]; printed (men)): ≥ 25 mg/kg/dose, TID | Dose with increased AST ([4]; printed (men)): ≥ 600 mg/kg/dose, TID | Dose with decrease in thymus weight ([4]; women [sic]): 100 mg/kg/dose, TID | Dose with increased AST ([4]; women [sic]): 600 mg/kg/dose, TID | Cardiovascular Effects [4]: none observed | Dose with decrease in red cell mass, RBC count, HGB, and HCT [4]: 100 mg/kg/dose, TID | Dose with fecal abnormalities [4]: > 250 mg/kg/dose, TID | Vacuoles in kidney (F) ([5]; rat, 25 TID mg/kg): P(F) | Swollen paws/legs and perioral appearance and red skin, paws and/or feet ([5]; rat, 60 TID mg/kg, second symbol (later day)): − | Decreased lymphocytes in mesenteric lymph node (F) ([5]; rat, 60 TID mg/kg): P(F) | Possible histamine-like in-life clinical signs ([5]; rats, 60 mg/kg/dose TID, Day 1 or Day 2, transient, ref Investigator’s Brochure (IB)): swollen paws/legs and perioral appearance | No observed effect level (NOEL) ([5]; rats, TID for seven days, lowest dose exceeded the NOEL, ref Investigator’s Brochure (IB)): < 10 mg/kg/dose | Time to appearance of histamine-like signs after treatment ([5]; rats, first or second daily dose of 60 mg/kg/dose (TID), ref Investigator’s Brochure (IB)): ≤ 120 min | Finding at 25 mg/kg/dose (TID) ([5]; rats, seven days, ref Investigator’s Brochure (IB)): dose-limiting erosions/ulcerations in the stomach
